From patent publication US8808715B1, “Methods and compositions for modulating keratinocyte function” (Georgia Regents Research Institute, Inc, priority 2004, dated 2014)

How the values were obtained:
[1] = tested on: primary keratinocytes; experiment: [3H]Glycerol uptake; assay type: cell-based, mouse; conditions: 24 hours
Protocol: Confluent primary keratinocytes were incubated for 30, 60, 90, 120, 300 or 600 seconds with SFKM containing 20 mM HEPES (for additional pH buffering), 1 μCi/mL [^3H]glycerol and 0.1% DMSO (control) or 100 nM PMA. Reactions were terminated by washing three times with ice-cold phosphate-buffered saline lacking divalent cations. The cells were subsequently solubilized in 0.3 M NaOH and aliquots of this extract subjected to liquid scintillation counting. Counts obtained from duplicate samples at each time point were averaged and graphed, and a linear equation was determined for each condition. Correlation coefficients obtained were typically 0.99 or greater (mean correlation coefficient for control was 0.992±0.002 and for PMA, 0.994±0.001). Slopes obtained from multiple experiments were averaged and analyzed statistically for significant differences between conditions.
The linearity of glycerol uptake determined above allowed measurement of uptake at a single time point to determine the effects of other treatments on this process. Thus, confluent keratinocytes were preincubated for 30 minutes with 0.1% DMSO (control) or 100 nM PMA prior to measuring [^3H]glycerol uptake as above but at 5 minutes only. Similarly, near-confluent primary keratinocytes were incubated for 24 hours with SFKM containing various calcium concentrations prior to measurement of radiolabeled glycerol uptake for 5 minutes.
Near-confluent keratinocyte cultures were incubated for 24 hours in SFKM (25 μM calcium) or SFKM containing 125 μM calcium (125 μM Ca^2+-SFKM) and the glycerol uptake assay performed as previously described in Zheng & Bollag (2003). Briefly, cells were incubated with SFKM containing 20 mM HEPES (for additional pH buffering) and 1 μCi/mL [^3H] glycerol for 5 minutes, since it has previously been shown that this time point is in the linear range of [^3H]glycerol uptake (Zheng & Bollag (2003). Reactions were terminated by rapidly washing three times with ice-cold phosphate-buffered saline lacking divalent cations (PBS-). Cells were then solubilized in 0.3 M NaOH and [^3H]glycerol uptake quantified by liquid scintillation spectroscopy.

[2] = tested on: keratinocytes; experiment: Release of radiolabel from [14C]glycerol-labeled lipids by bacterial PLD (headgroup position); assay type: cell-based, mouse; conditions: 125 μM calcium pretreatment 24 hours, means±SEM
Protocol: Keratinocytes pretreated for 24 hours with control (25 μM calcium) or 125 μM calcium-containing medium were exposed to 0.4-0.5 μCi/mL [^14C]glycerol for an additional 30 minutes. Lipids were extracted into chloroform/methanol as described above. Dried lipid extracts were then solubilized in phospho lipase buffer (100 mM Tris, pH 7.4, 6 mM MgCl2+0.1% Triton-X100) by extensive vortexing and a short incubation at 37° C. and approximately half of each extract was transferred into a clean tube. Distilled water (untreated) or 1 IU/mL (final concentration) of Streptomyces chromofuscus PLD (Sigma, St. Louis, Mo.) diluted in distilled water (PLD-treated) was then added to each of the lipid extract samples, which were incubated at 37° C. for 60 minutes. Released headgroups were then separated from phospholipids by extraction into the aqueous layer, essentially according to the method of Folch. […] A portion of the upper aqueous layer was then collected and quantified by liquid scintillation spectrometry. PLD-released radioactivity in the aqueous phase was calculated as the amount released in the PLD-treated sample minus the amount detected in the corresponding untreated sample. […] This lipid extract was then separated by thin-layer chromatography and PG and phosphatidic acid in the samples quantified as above.

[Ca+2] [calcium]
glycerol uptake relative to control ([1]; 500 μM calcium pretreatment): approximately equivalent to the control value | glycerol uptake relative to control ([1]; 1 mM calcium pretreatment): slight but not significant inhibition | increase in glycerol uptake relative to the 25 μM calcium control ([1]; pre-exposure to 125 μM calcium): 56% | increase in glycerol uptake relative to the 25 μM calcium control ([1]; pre-exposure to 250 μM calcium): 41% | radiolabel released into aqueous fraction by bacterial PLD from lipid extracts ([2]; p<0.001): 4.2±0.4 fold over the control level | radioactivity released by bacterial PLD from isolated PG ([2]; p<0.01): 3.3±0.5 fold over the control level
